Where “and” joins values, the source holds several entries; their conditions need not be identical. Equal values may be shown once.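 Grown in 96-well plates, cells were treated for 48 hours with each compound at five concentrations. Insufficient inhibition: endpoint recorded as highest concentration tested. Abbreviation: GI50, concentration required for 50% inhibition of growth. Definition used: TGI = concentration required for complete inhibition of growth.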
What was measured:
Experiment in all cases: growth of human tumour cells (NCI), 48 h
A549 NSCLC = system: A549 NSCLC
HCT-15 colon = system: HCT-15 colon
HL-60(TB) leukemia = system: HL-60(TB) leukemia
HOP-92 NSCLC = system: HOP-92 NSCLC
HS 578T breast = system: HS 578T breast
IGROV1 ovarian = system: IGROV1 ovarian
K-562 leukemia = system: K-562 leukemia
PC-3 prostate = system: PC-3 prostate
SNB-75 CNS = system: SNB-75 CNS
TK-10 renal = system: TK-10 renal

SMILES	GI50 (A549 NSCLC)	TGI (A549 NSCLC)	GI50 (HCT-15 colon)	TGI (HCT-15 colon)	GI50 (HL-60(TB) leukemia)	TGI (HL-60(TB) leukemia)	GI50 (HOP-92 NSCLC)	TGI (HOP-92 NSCLC)	GI50 (HS 578T breast)	TGI (HS 578T breast)	GI50 (IGROV1 ovarian) [µM]	TGI (IGROV1 ovarian) [µM]	GI50 (K-562 leukemia) [µM]	TGI (K-562 leukemia) [µM]	GI50 (PC-3 prostate)	TGI (PC-3 prostate)	GI50 (SNB-75 CNS)	TGI (SNB-75 CNS)	GI50 (TK-10 renal)	TGI (TK-10 renal)
Nc1ccc(C#Cc2ccccc2C#CCCCCO)cc1	14.7 µM	28.7 µM	15.3 µM	28.7 µM	23.4 µM	44 µM	15.5 µM	32.1 µM	26.8 µM	64.7 µM	16.1	30.2	19.7	40.8	15.6 µM	28.9 µM	14.4 µM	29.8 µM	21.6 µM	46.5 µM
Cc1ccsc1C(NC(=O)c1ccccc1)c1cc(Cl)c2cccnc2c1O (configuration not stated)	0.764 µM	13.6 µM	0.266 µM	16.6 µM	0.808 µM	5.07 µM	0.442 µM	7.45 µM	0.379 µM	19.7 µM	0.55	4.77	0.381	> 100	0.45 µM	16.6 µM	0.32 µM	14.9 µM	0.579 µM	12.6 µM
O=C1C2=C(C(=O)c3ccccc31)C(O)(S(=O)(=O)O)C(O)(S(=O)(=O)O)C1N=CC=CC21 (configuration not stated)	4.75 µM and 4.09 µM	37.1 µM and 16.1 µM	3.47 µM and 2.15 µM	> 100 µM	7.83 µM and 4.13 µM	> 100 µM and 20.6 µM	2.96 µM and 1.85 µM	26.9 µM and 6.81 µM	4.93 µM and 3.71 µM	75.7 µM and 29.8 µM	2.19	9.5	3.71	> 100	4.69 µM and 3.2 µM	> 100 µM and 29.6 µM	4.08 µM and 3.17 µM	41.9 µM and 19.6 µM	6.25 µM and 9.35 µM	68.3 µM and 28.8 µM
Cc1cc(I)cc(CN(C)CCCN2CCC(C)CC2)c1O	15.4 µM	29.6 µM	12.1 µM	26.7 µM	12.5 µM	31.6 µM	6.62 µM	21.5 µM	12.1 µM	26.2 µM	13.6	29.1	10.9	35.7	14.1 µM	29.7 µM	11 µM	23 µM	14.7 µM	29.2 µM
O=C1/C=C/[C@@H](O)[C@@H]2C[C@@H](O)C[C@H]2/C=C/CCC[C@H](CCO)O1	0.401 µM	> 100 µM	0.35 µM	> 100 µM	0.315 µM	1.16 µM	0.233 µM	0.93 µM	0.0519 µM	> 100 µM	0.382	> 100	0.365	> 100	0.367 µM	> 100 µM	0.0994 µM	> 100 µM	0.245 µM	0.832 µM
O=C1OC(OC/C(Br)=C(\Br)COC2OC(=O)C(Cl)=C2Cl)C(Cl)=C1Cl (configuration not stated)	–	34.3 µM	–	10.1 µM	–	1.43 µM	–	10.7 µM	–	31.7 µM	–	26.3	–	5.55	–	27.8 µM	–	39.4 µM	–	15.2 µM
COc1nn(C)cc1Nc1nccc(-c2c[nH]c3c(NC(=O)[C@@H](C)N4CCN(C)CC4)cccc23)n1	44.3 µM	> 100 µM	37.6 µM	> 100 µM	28.9 µM	> 100 µM	41.7 µM	> 100 µM	27 µM	> 100 µM	18.9	> 100	29.2	> 100	51.2 µM	> 100 µM	16.2 µM	40.9 µM	44.1 µM	> 100 µM
COc1c(C(N)=O)cc(-c2ccc(Cl)cc2)cc1-c1ccc(S(N)(=O)=O)cc1	8.33 µM	> 25 µM	9.66 µM	> 25 µM	7.19 µM	> 17.9 µM	3.26 µM	10.4 µM	14.4 µM	24.9 µM	10.4	> 25	7.94	> 20.3	7.08 µM	24.8 µM	7.76 µM	> 25 µM	6.65 µM	18.8 µM
COc1cc2[nH]c3c(c2cc1OC)CCN[C@@]31CC[C@@]2(CC3c4c(cc(OC)c(O)c42)CCN3C)C[C@@H]1OC (some centres not stated)	–	> 100 µM	–	> 100 µM	–	30.7 µM	–	69.3 µM	–	> 52.5 µM	–	> 100	–	56.5	–	> 100 µM	–	54 µM	–	84.5 µM
Cn1nc(C(F)(F)F)cc1-c1cc(Cl)c(OCc2ccc(Cl)cc2)c(-c2ccc(Cl)c(C(F)(F)F)c2)c1O	1.41 µM	5.6 µM	0.764 µM	4.4 µM	1.12 µM	2.49 µM	0.554 µM	2.1 µM	0.975 µM	2.92 µM	1.56	6.42	0.312	5.08	0.709 µM	5.09 µM	0.984 µM	2.68 µM	1.66 µM	5.56 µM
C[C@]12CCC(=O)C=C1C[C@@H](O)[C@@H]1[C@@H]2CC[C@@]2(C)[C@H]1CC[C@]2(C)O	–	> 100 µM	–	> 100 µM	–	> 100 µM	–	> 100 µM	–	> 100 µM	–	> 100	–	> 100	–	> 100 µM	–	> 100 µM	–	> 100 µM
C=C1C(=O)O[C@@H]2/C=C(/C)[C@@H](OC(C)=O)C[C@@H](O)/C(C)=C\[C@@H](OC(=O)[C@]3(C)O[C@@H]3C)[C@@H]12	–	> 100 µM	–	34.1 µM	–	7.85 µM	–	26.7 µM	–	> 100 µM	–	32.9	–	17.5	–	32.3 µM	–	37.6 µM	–	29.5 µM
c1ccc2c(N=NSc3ncnc4nc[nH]c34)c3ccccc3nc2c1	0.648 µM	3.89 µM	1.15 µM	10.2 µM	3.12 µM	6.96 µM	1.79 µM	4.77 µM	2.6 µM	7.21 µM	2.73	8.6	1.58	11.1	1.63 µM	8.04 µM	1.35 µM	2.95 µM	1.77 µM	6.37 µM
CC1=C(CCC(C)CO)O[C@H]2C[C@H]3[C@@H]4CC[C@H]5C[C@@H](O)CC[C@]5(C)[C@H]4CC(=O)[C@]3(C)[C@@H]12 (some centres not stated)	–	55.7 µM	–	57.6 µM	–	13.6 µM	–	67.3 µM	–	52.5 µM	–	55	–	40.7	–	21.2 µM	–	50.5 µM	–	46.7 µM
COc1cccc(N2CC(O)=C(c3nc4ccccc4s3)C2=N)c1	0.656 µM	> 56.6 µM	0.09 µM	31.2 µM	0.26 µM	> 100 µM	3.99 µM	> 57.2 µM	0.47 µM	> 44.7 µM	0.277	> 75.6	< 0.0204	> 100	0.32 µM	> 100 µM	–	1.98 µM	3.24 µM	70.2 µM
CC(=O)C1=C(C)N(Cc2ccccc2)C2(O)C=CC(=O)C3=C(O)c4ccccc4C(=O)C312 (configuration not stated)	20.1 µM	> 100 µM	1.81 µM	4.51 µM	> 100 µM	> 100 µM	3.73 µM	7.77 µM	18.5 µM	60 µM	6.2	> 100	8.68	> 100	10.3 µM	31.2 µM	4.88 µM	25 µM	2.82 µM	6.18 µM
CCC(=O)NC1=C(Cl)C(=O)C(NC(=O)CC)=C(Cl)C1=O	29.4 µM	> 61.8 µM	9.02 µM	27.1 µM	2.42 µM	> 23.7 µM	9.98 µM	28.8 µM	26.6 µM	69.7 µM	20.6	37	11.8	> 27.9	8.5 µM	21 µM	13.7 µM	18.1 µM	6.91 µM	15.4 µM
COC(=O)[C@]1(C)CCC[C@@]2(C)C3=C(CC[C@H]12)C[C@@H](CC(OC(C)=O)OC(C)=O)[C@@H](C)C3	15.4 µM	> 43.6 µM	15.4 µM	> 40.7 µM	14.4 µM	> 50 µM	9.95 µM	19.9 µM	10.9 µM	23 µM	14.5	> 37.1	14.7	> 50	11.4 µM	> 29 µM	14.1 µM	30.5 µM	13.5 µM	27.2 µM
NC1CC(=O)c2c(-c3cccs3)sc(-c3cccs3)c21 (configuration not stated)	53.2 µM	> 100 µM	3.04 µM	22.4 µM	20.5 µM	61.1 µM	16.6 µM	66.2 µM	36.7 µM	> 100 µM	27.3	> 100	25	> 100	30.8 µM	> 100 µM	22.6 µM	89.8 µM	16.3 µM	40.3 µM
CN1CCN(Cc2ccc(NC(=O)c3cncc(C#Cc4ccc(N)nc4)c3)cc2C(F)(F)F)CC1	1.38 µM	7.24 µM	1.12 µM	5.96 µM	0.945 µM	2.25 µM	0.408 µM	1.76 µM	0.486 µM	2.16 µM	0.476	3.22	0.005	5.54	1.58 µM	8.3 µM	1.06 µM	3.53 µM	1.63 µM	9.54 µM
Cc1cc(OCc2ccc(C(F)(F)F)cc2)c2c(c1)C(=O)C=C(NCCN1CCCC1)C2=O	2.85 µM	9.68 µM	1.95 µM	4.82 µM	1.71 µM	4.08 µM	1.96 µM	7.38 µM	2.02 µM	5.23 µM	6.69	25.1	2.41	6.18	5.36 µM	19.5 µM	1.49 µM	2.89 µM	6.85 µM	22.2 µM
COc1cc2c(cc1OCC(=O)Nc1ccc(Cl)cc1C(=O)c1ccccc1Cl)N=CC1CCCN1C2=O (configuration not stated)	16.8 µM	33 µM	12.6 µM	26 µM	16.3 µM	56.2 µM	10.9 µM	28.8 µM	7.17 µM	24 µM	3.9	16.4	4.23	19.9	12.3 µM	33.2 µM	14.2 µM	28.8 µM	12.2 µM	25.1 µM
Nc1nc(N)c2c(ccc3c2ccn3Cc2cccc([N+](=O)[O-])c2)n1	0.00496 µM	1.57 µM	0.0126 µM	1.58 µM and 1.7 µM	0.00918 µM and 0.0476 µM	2.5 µM	–	3.05 µM and 1.05 µM	1.61 µM	3.38 µM	0.00295	0.0255	–	21.6	0.163 µM and 0.0201 µM	2.74 µM and 1.74 µM	1.11 µM	2.36 µM	1.14 µM	2.67 µM
O=C(Nc1cccc([N+](=O)[O-])c1)c1cccc(C(=O)Nc2cccc([N+](=O)[O-])c2)c1	> 100 µM	> 100 µM	> 100 µM	> 100 µM	> 100 µM	> 100 µM	8.85 µM	60.7 µM	7.5 µM	> 30.7 µM	33.9	> 100	> 100	> 100	> 100 µM	> 100 µM	8.42 µM	72.2 µM	9.71 µM	> 61.3 µM
CC(NNC(=S)N1CCN(c2ccccn2)CC1)c1nccc2ccccc12 (configuration not stated)	–	13.2 µM	–	17.3 µM	–	1.18 µM	–	7.79 µM	–	61.6 µM	–	18.5	–	14.2	–	14.9 µM	–	18.9 µM	–	16.3 µM
Cc1cc(N(CCC#N)S(=O)(=O)c2ccccc2)ccc1C=Nc1ccc(C(=O)O)cc1	–	52.5 µM	–	13.7 µM	–	> 21.3 µM	–	> 100 µM	–	> 100 µM	–	46.5	–	17.9	–	> 100 µM	–	29.1 µM	–	17.9 µM
